According to ChEMBL document CHEMBL4184267, “Novel naftopidil derivatives containing methyl phenylacetate and their blocking effects on α1D/1A-adrenoreceptor subtypes” (Bioorg Med Chem Lett, 2018):

The compounds below were run on Thoracic aorta (assay: Vasodilatory activity in New Zealand White rabbit thoracic aorta assessed as relaxation of (-)-noradrenaline-induced contractile response at 1 uM relative to untreated control). Settings: not given.
Type: functional, Oryctolagus cuniculus
Set-up: scale not given: the % may be the effect or the level left

| Structure (SMILES) | Activity [%] |
| --- | --- |
| COC(=O)Cc1ccc(OCC(O)CN2CCN(c3cc(C)ccc3C)CC2)cc1 (stereo not drawn) | 66.2 |
| COC(=O)Cc1ccc(OCC(O)CN2CCN(c3cc(C)cc(C)c3)CC2)cc1 (stereo not drawn) | 18.6 |
| COC(=O)Cc1ccc(OCC(O)CN2CCN(c3cccc(OC)c3)CC2)cc1 (stereo not drawn) | 23.7 |
| COC(=O)Cc1ccc(OCC(O)CN2CCN(c3cccc(C)c3C)CC2)cc1 (stereo not drawn) | 43.3 |
| COC(=O)Cc1ccc(OCC(O)CN2CCN(c3ccccc3OC)CC2)cc1 (stereo not drawn) | 71.1 |
| COC(=O)Cc1ccc(OCC(O)CN2CCN(c3cc(Cl)c(OC)cc3OC)CC2)cc1 (stereo not drawn) | 20.4 |
| COC(=O)Cc1ccc(OCC(O)CN2CCN(c3ccccc3Cl)CC2)cc1 (stereo not drawn) | 58.7 |
| COc1ccccc1N1CCN(CC(O)COc2cccc3ccccc23)CC1 (stereo not drawn) [NAFTOPIDIL] | 86.9 |

The compounds below were run against T1, Alpha-1D adrenergic receptor (Homo sapiens, UniProt P25100) (assay: Displacement of [125I-HEAT from human alpha1D-adrenoreceptor expressed in CHOK1 cell membranes incubated for 60 mins). Settings: not given.
T1 sequence (P25100 whole entry): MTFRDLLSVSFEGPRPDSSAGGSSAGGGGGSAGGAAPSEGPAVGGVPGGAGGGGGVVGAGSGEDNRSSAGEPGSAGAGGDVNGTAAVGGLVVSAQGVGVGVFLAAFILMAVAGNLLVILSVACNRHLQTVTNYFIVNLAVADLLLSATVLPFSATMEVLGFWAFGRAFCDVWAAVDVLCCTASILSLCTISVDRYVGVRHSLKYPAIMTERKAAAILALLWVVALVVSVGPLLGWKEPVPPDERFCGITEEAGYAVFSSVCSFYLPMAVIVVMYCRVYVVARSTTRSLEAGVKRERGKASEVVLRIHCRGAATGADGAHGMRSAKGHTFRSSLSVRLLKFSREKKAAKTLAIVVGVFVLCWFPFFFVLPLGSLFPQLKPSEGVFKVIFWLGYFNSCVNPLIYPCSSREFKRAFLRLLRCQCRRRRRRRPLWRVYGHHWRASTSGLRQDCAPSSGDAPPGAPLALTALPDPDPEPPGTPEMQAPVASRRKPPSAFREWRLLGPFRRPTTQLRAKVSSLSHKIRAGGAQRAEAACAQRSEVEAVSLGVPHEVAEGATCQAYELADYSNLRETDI

| Ki [nM] | Structure (SMILES) |
| --- | --- |
| 1.2 | COc1ccccc1N1CCN(CC(O)COc2cccc3ccccc23)CC1 (stereo not drawn) [NAFTOPIDIL] |

What follows are compounds tested against T2, Alpha-1B adrenergic receptor (Homo sapiens, UniProt P35368) (assay: Displacement of [125I-HEAT from human alpha1B-adrenoreceptor expressed in CHOK1 cell membranes incubated for 60 mins). Settings: not given.
T2 sequence (P35368 whole entry): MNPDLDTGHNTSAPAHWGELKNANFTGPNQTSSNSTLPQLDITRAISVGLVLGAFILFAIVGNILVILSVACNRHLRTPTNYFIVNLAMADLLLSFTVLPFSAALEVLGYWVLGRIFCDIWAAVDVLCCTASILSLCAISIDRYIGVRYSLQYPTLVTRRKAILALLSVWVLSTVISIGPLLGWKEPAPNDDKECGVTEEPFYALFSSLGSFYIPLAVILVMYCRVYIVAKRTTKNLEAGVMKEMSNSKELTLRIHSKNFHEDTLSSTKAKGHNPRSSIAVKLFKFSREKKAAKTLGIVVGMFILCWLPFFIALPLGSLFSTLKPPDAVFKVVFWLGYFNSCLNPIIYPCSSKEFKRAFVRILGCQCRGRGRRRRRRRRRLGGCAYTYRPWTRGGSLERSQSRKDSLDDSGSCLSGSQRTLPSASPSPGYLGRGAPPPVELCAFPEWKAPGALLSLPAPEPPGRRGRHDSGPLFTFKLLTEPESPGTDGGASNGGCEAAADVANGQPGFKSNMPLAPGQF

| Ki [nM] | Structure (SMILES) |
| --- | --- |
| 20 | COc1ccccc1N1CCN(CC(O)COc2cccc3ccccc23)CC1 (stereo not drawn) [NAFTOPIDIL] |

The compounds below were run on Thoracic aorta (assay: Vasodilatory activity in New Zealand White rabbit thoracic aorta assessed as relaxation of (-)-noradrenaline-induced contractile response at 0.1 uM relative to untreated control). Settings: not given.
Type: functional, Oryctolagus cuniculus
Set-up: scale not given: the % may be the effect or the level left

| Structure (SMILES) | Activity [%] |
| --- | --- |
| COC(=O)Cc1ccc(OCC(O)CN2CCN(c3cc(C)ccc3C)CC2)cc1 (stereo not drawn) | 24.3 |
| COC(=O)Cc1ccc(OCC(O)CN2CCN(c3cc(C)cc(C)c3)CC2)cc1 (stereo not drawn) | 5.8 |
| COC(=O)Cc1ccc(OCC(O)CN2CCN(c3cccc(OC)c3)CC2)cc1 (stereo not drawn) | 13 |
| COC(=O)Cc1ccc(OCC(O)CN2CCN(c3cccc(C)c3C)CC2)cc1 (stereo not drawn) | 12.5 |
| COC(=O)Cc1ccc(OCC(O)CN2CCN(c3ccccc3OC)CC2)cc1 (stereo not drawn) | 27.6 |
| COC(=O)Cc1ccc(OCC(O)CN2CCN(c3cc(Cl)c(OC)cc3OC)CC2)cc1 (stereo not drawn) | 8.2 |
| COC(=O)Cc1ccc(OCC(O)CN2CCN(c3ccccc3Cl)CC2)cc1 (stereo not drawn) | 29 |
| COc1ccccc1N1CCN(CC(O)COc2cccc3ccccc23)CC1 (stereo not drawn) [NAFTOPIDIL] | 25.1 |

The compounds below were run against T3, Alpha-1A adrenergic receptor (Rattus norvegicus, UniProt P43140) (assay: Antagonist activity at alpha1A-adrenoreceptor in Sprague-Dawley rat vas deferens assessed as relaxation of (-)-noradrenaline-induced contractile response). Settings: read-out: pA2 (converted).
T3 sequence (P43140 whole entry): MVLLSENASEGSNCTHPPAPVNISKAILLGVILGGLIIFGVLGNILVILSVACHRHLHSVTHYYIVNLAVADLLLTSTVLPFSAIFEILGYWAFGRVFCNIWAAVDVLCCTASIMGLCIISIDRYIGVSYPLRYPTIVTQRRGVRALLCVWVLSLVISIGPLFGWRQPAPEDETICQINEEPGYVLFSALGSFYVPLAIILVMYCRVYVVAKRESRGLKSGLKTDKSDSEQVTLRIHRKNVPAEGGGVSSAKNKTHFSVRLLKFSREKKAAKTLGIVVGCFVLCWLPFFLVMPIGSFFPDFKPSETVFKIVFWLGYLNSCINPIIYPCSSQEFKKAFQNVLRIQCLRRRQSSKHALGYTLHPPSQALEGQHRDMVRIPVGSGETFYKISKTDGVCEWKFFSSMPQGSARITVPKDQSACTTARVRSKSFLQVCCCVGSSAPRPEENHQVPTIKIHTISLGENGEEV
Type: functional

| Kb [nM] | Structure (SMILES) |
| --- | --- |
| 63.1 | COC(=O)Cc1ccc(OC[C@H](O)CN2CCN(c3cc(C)ccc3C)CC2)cc1 |
| 38.9 | COC(=O)Cc1ccc(OCC(O)CN2CCN(c3cc(C)ccc3C)CC2)cc1 (stereo not drawn) |
| 30.2 | COC(=O)Cc1ccc(OC[C@@H](O)CN2CCN(c3cc(C)ccc3C)CC2)cc1 |
| 148 | COC(=O)Cc1ccc(OCC(O)CN2CCN(c3ccccc3OC)CC2)cc1 (stereo not drawn) |

These compounds were tested against T4, Alpha-1D adrenergic receptor (Rattus norvegicus, UniProt P23944) (assay: Antagonist activity at alpha1D-adrenoreceptor in Sprague-Dawley rat thoracic aorta assessed as relaxation of (-)-noradrenaline-induced contractile response). Settings: read-out: pA2 (converted).
T4 sequence (P23944 whole entry): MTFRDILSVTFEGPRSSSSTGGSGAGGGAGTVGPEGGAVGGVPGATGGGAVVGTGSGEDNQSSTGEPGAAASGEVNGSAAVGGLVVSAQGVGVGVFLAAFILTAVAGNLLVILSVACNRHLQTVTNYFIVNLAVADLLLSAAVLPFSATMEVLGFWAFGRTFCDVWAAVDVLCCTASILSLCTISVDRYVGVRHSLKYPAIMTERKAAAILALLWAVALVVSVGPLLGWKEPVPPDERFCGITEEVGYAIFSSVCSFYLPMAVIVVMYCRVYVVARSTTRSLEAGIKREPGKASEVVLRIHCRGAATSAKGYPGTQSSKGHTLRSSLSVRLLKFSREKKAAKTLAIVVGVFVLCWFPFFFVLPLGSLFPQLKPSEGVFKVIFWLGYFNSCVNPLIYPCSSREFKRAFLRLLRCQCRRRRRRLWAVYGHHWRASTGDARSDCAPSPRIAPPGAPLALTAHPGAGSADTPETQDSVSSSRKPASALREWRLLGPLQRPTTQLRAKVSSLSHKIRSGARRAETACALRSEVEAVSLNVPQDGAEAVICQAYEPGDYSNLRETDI
Type: functional

| Kb [nM] | Structure (SMILES) |
| --- | --- |
| 38 | COC(=O)Cc1ccc(OC[C@H](O)CN2CCN(c3cc(C)ccc3C)CC2)cc1 |
| 44.7 | COC(=O)Cc1ccc(OCC(O)CN2CCN(c3cc(C)ccc3C)CC2)cc1 (stereo not drawn) |
| 15.5 | COC(=O)Cc1ccc(OC[C@@H](O)CN2CCN(c3cc(C)ccc3C)CC2)cc1 |
| 77.6 | COC(=O)Cc1ccc(OCC(O)CN2CCN(c3ccccc3OC)CC2)cc1 (stereo not drawn) |

The compounds below were run on Thoracic aorta (assay: Vasodilatory activity in New Zealand White rabbit thoracic aorta assessed as relaxation of (-)-noradrenaline-induced contractile response at 10 uM relative to untreated control). Settings: not given.
Type: functional, Oryctolagus cuniculus
Set-up: scale not given: the % may be the effect or the level left

| Structure (SMILES) | Activity [%] |
| --- | --- |
| COC(=O)Cc1ccc(OCC(O)CN2CCN(c3cc(C)ccc3C)CC2)cc1 (stereo not drawn) | 100 |
| COC(=O)Cc1ccc(OCC(O)CN2CCN(c3cc(C)cc(C)c3)CC2)cc1 (stereo not drawn) | 61.4 |
| COC(=O)Cc1ccc(OCC(O)CN2CCN(c3cccc(OC)c3)CC2)cc1 (stereo not drawn) | 39.8 |
| COC(=O)Cc1ccc(OCC(O)CN2CCN(c3cccc(C)c3C)CC2)cc1 (stereo not drawn) | 81.7 |
| COC(=O)Cc1ccc(OCC(O)CN2CCN(c3ccccc3OC)CC2)cc1 (stereo not drawn) | 100 |
| COC(=O)Cc1ccc(OCC(O)CN2CCN(c3cc(Cl)c(OC)cc3OC)CC2)cc1 (stereo not drawn) | 46.1 |
| COC(=O)Cc1ccc(OCC(O)CN2CCN(c3ccccc3Cl)CC2)cc1 (stereo not drawn) | 98.3 |
| COc1ccccc1N1CCN(CC(O)COc2cccc3ccccc23)CC1 (stereo not drawn) [NAFTOPIDIL] | 97.8 |

The compounds below were run against T5, Alpha-1B adrenergic receptor (Rattus norvegicus, UniProt P15823) (assay: Antagonist activity at alpha1B-adrenoreceptor in Sprague-Dawley rat spleen assessed as relaxation of (-)-noradrenaline-induced contractile response). Settings: read-out: pA2 (converted).
T5 sequence (P15823 whole entry): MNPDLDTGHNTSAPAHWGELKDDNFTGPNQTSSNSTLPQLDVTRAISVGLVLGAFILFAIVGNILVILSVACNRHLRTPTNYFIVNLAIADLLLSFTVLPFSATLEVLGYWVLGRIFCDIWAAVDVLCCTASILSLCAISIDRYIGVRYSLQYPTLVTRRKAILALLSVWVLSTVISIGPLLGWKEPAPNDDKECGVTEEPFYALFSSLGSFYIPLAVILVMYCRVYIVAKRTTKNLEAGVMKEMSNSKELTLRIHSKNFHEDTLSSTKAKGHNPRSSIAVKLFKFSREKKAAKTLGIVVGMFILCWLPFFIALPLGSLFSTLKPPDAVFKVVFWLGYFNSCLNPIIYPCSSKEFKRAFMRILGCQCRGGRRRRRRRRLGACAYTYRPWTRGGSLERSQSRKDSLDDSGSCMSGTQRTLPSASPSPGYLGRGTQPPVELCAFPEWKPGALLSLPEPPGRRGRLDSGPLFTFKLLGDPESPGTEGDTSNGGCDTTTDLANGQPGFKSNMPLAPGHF
Type: functional

| Kb [nM] | Structure (SMILES) |
| --- | --- |
| 447 | COC(=O)Cc1ccc(OC[C@H](O)CN2CCN(c3cc(C)ccc3C)CC2)cc1 |
| 759 | COC(=O)Cc1ccc(OCC(O)CN2CCN(c3cc(C)ccc3C)CC2)cc1 (stereo not drawn) |
| 269 | COC(=O)Cc1ccc(OC[C@@H](O)CN2CCN(c3cc(C)ccc3C)CC2)cc1 |
| 603 | COC(=O)Cc1ccc(OCC(O)CN2CCN(c3ccccc3OC)CC2)cc1 (stereo not drawn) |
